{"source": "the supplement of paper PMC10307832", "assay_in_all_cases": "relative viability (nuclei count vs DMSO), 5 days (fraction); higher = more cells survive", "key": {"NCI-H3122": {"test_system": "NCI-H3122", "procedure,_shortened": "(§1)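 Each reported value is a median over duplicate plates. It expresses relative viability: treated-well nuclei count divided by vehicle-well nuclei count. Lung cancer cell lines in 1536-well plates were dosed by pin tool a day after seeding, alone with one drug or with a fixed anchor-drug dose plus five library-drug doses (not always all listed) in √10 steps, and nuclei were counted after 5 days.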"}, "HARA": {"test_system": "HARA", "procedure,_shortened": "as §1"}, "NCI-H838": {"test_system": "NCI-H838", "procedure,_shortened": "as §1"}, "CAL-12T": {"test_system": "CAL-12T", "procedure,_shortened": "as §1"}, "LU99A": {"test_system": "LU99A", "procedure,_shortened": "as §1"}, "NCI-H2009": {"test_system": "NCI-H2009", "procedure,_shortened": "as §1"}, "COR-L23": {"test_system": "COR-L23", "procedure,_shortened": "as §1"}, "NCI-H441": {"test_system": "NCI-H441", "procedure,_shortened": "as §1"}, "NCI-H727": {"test_system": "NCI-H727", "procedure,_shortened": "as §1"}, "LK-2": {"test_system": "LK-2", "procedure,_shortened": "as §1"}, "EKVX": {"test_system": "EKVX", "procedure,_shortened": "as §1"}, "ABC-1": {"test_system": "ABC-1", "procedure,_shortened": "as §1"}, "NCI-H1666": {"test_system": "NCI-H1666", "procedure,_shortened": "as §1"}, "201T": {"test_system": "201T", "procedure,_shortened": "as §1"}, "COR-L 105": {"test_system": "COR-L 105", "procedure,_shortened": "as §1"}, "NCI-H661": {"test_system": "NCI-H661", "procedure,_shortened": "as §1"}, "PC-14": {"test_system": "PC-14", "procedure,_shortened": "as §1"}, "HCC-366": {"test_system": "HCC-366", "procedure,_shortened": "as §1"}, "NCI-H1437": {"test_system": "NCI-H1437", "procedure,_shortened": "as §1"}, "BEN": {"test_system": "BEN", "procedure,_shortened": "as §1"}}, "data": [{"smiles": "CC1(C)CCC(c2ccc(Cl)cc2)=C(CN2CCN(c3ccc(C(=O)NS(=O)(=O)c4ccc(N[C@H](CCN5CCOCC5)CSc5ccccc5)c(S(=O)(=O)C(F)(F)F)c4)cc3)CC2)C1", "note": "[Navitoclax] + C[C@]1(O)C[C@@H](c2nc(-c3ccc4ccc(-c5ccccc5)nc4c3)c3c(N)nccn32)C1 [Linsitinib] (partner 1 µM)", "values": [{"measurement": "relative viability", "setting": "NCI-H3122; first compound 0.005 µM", "value": 1.11}, {"measurement": "relative viability", "setting": "NCI-H3122; first compound 0.01581 µM", "value": 1.08}, {"measurement": "relative viability", "setting": "NCI-H3122; first compound 0.05 µM", "value": 1.13}, {"measurement": "relative viability", "setting": "NCI-H3122; first compound 0.1581 µM", "value": 0.985}, {"measurement": "relative viability", "setting": "NCI-H3122; first compound 0.5 µM", "value": 1.02}, {"measurement": "relative viability", "setting": "HARA; first compound 0.005 µM", "value": 0.833}, {"measurement": "relative viability", "setting": "HARA; first compound 0.01581 µM", "value": 1.16}, {"measurement": "relative viability", "setting": "HARA; first compound 0.05 µM", "value": 0.749}, {"measurement": "relative viability", "setting": "HARA; first compound 0.1581 µM", "value": 0.918}, {"measurement": "relative viability", "setting": "HARA; first compound 0.5 µM", "value": 0.861}, {"measurement": "relative viability", "setting": "NCI-H838; first compound 0.005 µM", "value": 0.89}, {"measurement": "relative viability", "setting": "NCI-H838; first compound 0.01581 µM", "value": 1.11}, {"measurement": "relative viability", "setting": "NCI-H838; first compound 0.05 µM", "value": 1.12}, {"measurement": "relative viability", "setting": "NCI-H838; first compound 0.1581 µM", "value": 1.03}, {"measurement": "relative viability", "setting": "NCI-H838; first compound 0.5 µM", "value": 1.03}, {"measurement": "relative viability", "setting": "CAL-12T; first compound 0.005 µM", "value": 0.849}, {"measurement": "relative viability", "setting": "CAL-12T; first compound 0.01581 µM", "value": 0.937}, {"measurement": "relative viability", "setting": "CAL-12T; first compound 0.05 µM", "value": 0.775}, {"measurement": "relative viability", "setting": "CAL-12T; first compound 0.1581 µM", "value": 0.736}, {"measurement": "relative viability", "setting": "CAL-12T; first compound 0.5 µM", "value": 0.726}, {"measurement": "relative viability", "setting": "LU99A; first compound 0.005 µM", "value": 0.622}, {"measurement": "relative viability", "setting": "LU99A; first compound 0.01581 µM", "value": 0.67}, {"measurement": "relative viability", "setting": "LU99A; first compound 0.05 µM", "value": 0.444}, {"measurement": "relative viability", "setting": "LU99A; first compound 0.1581 µM", "value": 0.543}, {"measurement": "relative viability", "setting": "LU99A; first compound 0.5 µM", "value": 0.522}, {"measurement": "relative viability", "setting": "NCI-H2009; first compound 0.005 µM", "value": 1.08}, {"measurement": "relative viability", "setting": "NCI-H2009; first compound 0.01581 µM", "value": 1.25}, {"measurement": "relative viability", "setting": "NCI-H2009; first compound 0.05 µM", "value": 1.16}, {"measurement": "relative viability", "setting": "NCI-H2009; first compound 0.1581 µM", "value": 1.18}, {"measurement": "relative viability", "setting": "NCI-H2009; first compound 0.5 µM", "value": 1.31}, {"measurement": "relative viability", "setting": "COR-L23; first compound 0.005 µM", "value": 0.874}, {"measurement": "relative viability", "setting": "COR-L23; first compound 0.01581 µM", "value": 0.991}, {"measurement": "relative viability", "setting": "COR-L23; first compound 0.05 µM", "value": 0.97}, {"measurement": "relative viability", "setting": "COR-L23; first compound 0.1581 µM", "value": 0.853}, {"measurement": "relative viability", "setting": "COR-L23; first compound 0.5 µM", "value": 0.88}, {"measurement": "relative viability", "setting": "NCI-H441; first compound 0.005 µM", "value": 0.449}, {"measurement": "relative viability", "setting": "NCI-H441; first compound 0.01581 µM", "value": 0.587}, {"measurement": "relative viability", "setting": "NCI-H441; first compound 0.05 µM", "value": 0.412}, {"measurement": "relative viability", "setting": "NCI-H441; first compound 0.1581 µM", "value": 0.44}, {"measurement": "relative viability", "setting": "NCI-H441; first compound 0.5 µM", "value": 0.706}, {"measurement": "relative viability", "setting": "NCI-H727; first compound 0.005 µM", "value": 0.299}, {"measurement": "relative viability", "setting": "NCI-H727; first compound 0.01581 µM", "value": 0.358}, {"measurement": "relative viability", "setting": "NCI-H727; first compound 0.1581 µM", "value": 0.284}, {"measurement": "relative viability", "setting": "NCI-H727; first compound 0.5 µM", "value": 0.162}, {"measurement": "relative viability", "setting": "LK-2; first compound 0.005 µM", "value": 0.792}, {"measurement": "relative viability", "setting": "LK-2; first compound 0.01581 µM", "value": 0.803}, {"measurement": "relative viability", "setting": "LK-2; first compound 0.05 µM", "value": 0.805}, {"measurement": "relative viability", "setting": "LK-2; first compound 0.1581 µM", "value": 0.51}, {"measurement": "relative viability", "setting": "LK-2; first compound 0.5 µM", "value": 0.623}, {"measurement": "relative viability", "setting": "EKVX; first compound 0.005 µM", "value": 0.953}, {"measurement": "relative viability", "setting": "EKVX; first compound 0.01581 µM", "value": 1.28}, {"measurement": "relative viability", "setting": "EKVX; first compound 0.05 µM", "value": 0.954}, {"measurement": "relative viability", "setting": "EKVX; first compound 0.1581 µM", "value": 0.953}, {"measurement": "relative viability", "setting": "EKVX; first compound 0.5 µM", "value": 1.01}, {"measurement": "relative viability", "setting": "ABC-1; first compound 0.005 µM", "value": 0.641}, {"measurement": "relative viability", "setting": "ABC-1; first compound 0.01581 µM", "value": 0.976}, {"measurement": "relative viability", "setting": "ABC-1; first compound 0.05 µM", "value": 0.81}, {"measurement": "relative viability", "setting": "ABC-1; first compound 0.1581 µM", "value": 0.703}, {"measurement": "relative viability", "setting": "ABC-1; first compound 0.5 µM", "value": 0.708}, {"measurement": "relative viability", "setting": "NCI-H1666; first compound 0.005 µM", "value": 0.923}, {"measurement": "relative viability", "setting": "NCI-H1666; first compound 0.01581 µM", "value": 0.954}, {"measurement": "relative viability", "setting": "NCI-H1666; first compound 0.05 µM", "value": 0.82}, {"measurement": "relative viability", "setting": "NCI-H1666; first compound 0.1581 µM", "value": 0.705}, {"measurement": "relative viability", "setting": "NCI-H1666; first compound 0.5 µM", "value": 0.829}, {"measurement": "relative viability", "setting": "201T; first compound 0.005 µM", "value": 1.11}, {"measurement": "relative viability", "setting": "201T; first compound 0.01581 µM", "value": 1.09}, {"measurement": "relative viability", "setting": "201T; first compound 0.05 µM", "value": 0.95}, {"measurement": "relative viability", "setting": "201T; first compound 0.1581 µM", "value": 1.05}, {"measurement": "relative viability", "setting": "201T; first compound 0.5 µM", "value": 1.01}, {"measurement": "relative viability", "setting": "COR-L 105; first compound 0.005 µM", "value": 0.937}, {"measurement": "relative viability", "setting": "COR-L 105; first compound 0.01581 µM", "value": 1.02}, {"measurement": "relative viability", "setting": "COR-L 105; first compound 0.05 µM", "value": 1.05}, {"measurement": "relative viability", "setting": "COR-L 105; first compound 0.1581 µM", "value": 1.09}, {"measurement": "relative viability", "setting": "COR-L 105; first compound 0.5 µM", "value": 0.979}, {"measurement": "relative viability", "setting": "NCI-H661; first compound 0.005 µM", "value": 0.524}, {"measurement": "relative viability", "setting": "NCI-H661; first compound 0.01581 µM", "value": 0.601}, {"measurement": "relative viability", "setting": "NCI-H661; first compound 0.05 µM", "value": 0.575}, {"measurement": "relative viability", "setting": "NCI-H661; first compound 0.1581 µM", "value": 0.552}, {"measurement": "relative viability", "setting": "NCI-H661; first compound 0.5 µM", "value": 0.5}, {"measurement": "relative viability", "setting": "PC-14; first compound 0.005 µM", "value": 1.03}, {"measurement": "relative viability", "setting": "PC-14; first compound 0.01581 µM", "value": 1.04}, {"measurement": "relative viability", "setting": "PC-14; first compound 0.05 µM", "value": 1.07}, {"measurement": "relative viability", "setting": "PC-14; first compound 0.1581 µM", "value": 0.926}, {"measurement": "relative viability", "setting": "PC-14; first compound 0.5 µM", "value": 0.977}, {"measurement": "relative viability", "setting": "HCC-366; first compound 0.005 µM", "value": 0.672}, {"measurement": "relative viability", "setting": "HCC-366; first compound 0.01581 µM", "value": 0.728}, {"measurement": "relative viability", "setting": "HCC-366; first compound 0.05 µM", "value": 0.155}, {"measurement": "relative viability", "setting": "HCC-366; first compound 0.1581 µM", "value": 0.615}, {"measurement": "relative viability", "setting": "HCC-366; first compound 0.5 µM", "value": 0.449}, {"measurement": "relative viability", "setting": "NCI-H1437; first compound 0.005 µM", "value": 0.952}, {"measurement": "relative viability", "setting": "NCI-H1437; first compound 0.01581 µM", "value": 1.08}, {"measurement": "relative viability", "setting": "NCI-H1437; first compound 0.05 µM", "value": 1.02}, {"measurement": "relative viability", "setting": "NCI-H1437; first compound 0.1581 µM", "value": 1.09}, {"measurement": "relative viability", "setting": "NCI-H1437; first compound 0.5 µM", "value": 0.95}, {"measurement": "relative viability", "setting": "BEN; first compound 0.005 µM", "value": 0.841}, {"measurement": "relative viability", "setting": "BEN; first compound 0.01581 µM", "value": 0.921}, {"measurement": "relative viability", "setting": "BEN; first compound 0.05 µM", "value": 0.958}, {"measurement": "relative viability", "setting": "BEN; first compound 0.1581 µM", "value": 0.911}, {"measurement": "relative viability", "setting": "BEN; first compound 0.5 µM", "value": 0.634}]}]}
